Source: publication PMC10994559 (PLOS Neglected Tropical Diseases, 2024)
Where two headings read alike, the source gives them in different places.

Assays:
L. major promastigotes = assay: L. major promastigote viability, resazurin reduction; format: cell-based, Leishmania major; details: for viability at 25 µM: Leishmania major
Description: (§1) The infectivity of the parasites was boosted by passaging in Balb/c mice and culturing the infected lymph nodes after six weeks. L. infantum (MHOM / BR / 76 / M4192) parasite was passaged in the same media formulation with 0.5% urine.

[1] = system: L. infantum promastigotes; assay: L. infantum promastigote viability, resazurin reduction; format: cell-based, Leishmania infantum; details: for viability at 2.5 µM / viability at 25 µM: Leishmania infantum
Description: as §1

[2] = system: L. major axenic amastigotes; assay: L. major axenic amastigote viability, resazurin reduction
Experimental: L. major LV561(MHOM/IL/67/LRC-L137 JERICHO II) amastigotes were passaged in Grace insect medium supplemented with NaHCO3, 0.1% amikin and 20% of FCS (pH: 5.4) and kept at 33°C.
Exponential growth phase promastigotes of L. major or L. infantum and axenic amastigotes (L. major) were harvested and seeded in 384 well plates (white, non-transparent, tissue culture treated, flat bottom; Corning) (0.5x10^5 cells per well). Compounds were pre-dispensed into the plate with an Echo 650 acoustic dispenser (Beckman Coulter). After 72h incubation, resazurin was added (1:10 v/v) from a […] stock in PBS, followed by incubation for six hours. Then, fluorescence intensity was measured using a microplate reader (Synergy H1, BioTek) with excitation filter: 550 nm and emission filter: 590 nm. Efficient compounds were selected for the next round of viability assay with 2.5 μM concentrations of the compounds. […] All experiments were performed with AmB as a positive control drug in parallel.
Axenic amastigotes, the relevant form that persists in the infected host, were generated in the lab through established procedures, employing harsh pH (pH 5) and high temperature (33°C) conditions.

T. brucei brucei BSF = assay: T. brucei BSF viability, resazurin reduction; format: cell-based, Trypanosoma brucei brucei; details: for EC50: ± SD (Table 2) / ± SE (S3 Table)
Experimental: T. brucei brucei (strain 427 Lister) blood stream form (BSF) parasites were passaged in complete HMI-9 media supplemented with 10% FCS, Pen-Strep (0.1%) and 2-mercaptoethanol (0.014 v/v) and kept in a 37° C CO2 incubator in filter-cap flasks.
(§2) Viability of T. brucei brucei BSF and T. cruzi trypomastigotes was assayed with fluorescence resazurin reduction assay, essentially as described above. […] Next, selected compounds were tested at 2.5 μM concentration, and promising compounds subjected to 18 concentrations dose response analyses. AN3057 and AmB were used as a control drug in T. brucei and T. cruzi, respectively.

T. cruzi trypomastigotes = assay: T. cruzi viability, resazurin reduction; format: cell-based, Trypanosoma cruzi; details: for viability at 2.5 µM / viability at 25 µM: Trypanosoma cruzi
Experimental: T. cruzi (Y strain) trypomastigotes were passaged in liver infusion broth media supplemented with tryptose, NaCl, Na2HPO4, KCl, glucose, hemin, Pen-Strep (1%), 10% FCS (pH: 7.2) and kept at 28°C.
as §2

E. histolytica = E. histolytica viability, ATP luminescence (Cell titer glo); format: cell-based, Entamoeba histolytica
Experimental: Entamoeba histolytica (strain B2-5) was passaged in TY-1 medium (Trypticase peptone BBL, Yeast extract BBL, glucose, NaCl, K2HPO4, KH2PO4, cysteine, ascorbic acid, ammonium iron citrate, adult bovine serum, Diamond tween 80, penicillin G, amikacin (pH:6.8)) and kept in 37°C incubator in completely filled tubes with closed lid.
Viability of E. histolytica was assayed via a luminescence assay based on ATP quantification in the live cells. Briefly, 2.5x10^4 cell/ml were exposed to 25 μM of compounds in 96 well plates (non-transparent, tissue culture treated, flat bottom; SPL Life Sciences) in triplicate for 48h. Plates were incubated in sealed anaerobic bags (Oxoid AGS) together with an Anaerogen compact bag (Thermo Scientific) and anaerobic indicator (Thermo Scientific) at 37°C. Then, Cell titer glo reagent (Promega) was added to the reaction (1:5) according to manufacturers’ instruction. After 15 min of orbital shaking, followed by 10 min incubation at RT, ATP-bioluminescence was quantified at RT using a Synergy H1 plate reader (Synergy H1, BioTek). Metronidazole was included as control drug in all the assays for E. histolytica. Test compounds indicating significant growth reduction in the primary screen were subjected to potency determination. These secondary screens were essentially carried out as detailed above, but with a 9 to 16-point concentration range of the test compounds spanning 0.01–100 μM.

[3] = Cytotoxicity assay J774, resazurin reduction; format: cell-based, murine; details: mouse, J774 macrophage cells
Experimental: (§3) Mammalian cell lines (J774 and HepG2) were passaged in RPMI media supplemented with MEM, Pen-Strep (1%) and 10% FCS. Cultures were kept at 37°C incubator with 5% CO2 in filter-cap flasks.
(§4) Murine macrophage cells (J774) and human hepatocyte carcinoma HepG2 cells were seeded at 0.5x10^5 cell/well in 384 well plates in triplicate, exposed to serial dilution of compounds, dispensed using an Echo 650 acoustic dispenser (Labcyte). After incubation for 72 h at 37°C, 5% CO2, cell viability was determined using fluorescence resazurin reduction assay (λEx: 550 nm; λEm: 590 nm).

[4] = system: intracellular L. infantum amastigotes; assay: Parasite rescue assay (intramacrophage, J774 infected with L. infantum); format: cell-based, Leishmania infantum
[5] = system: intracellular L. infantum amastigotes; assay: as above; format: cell-based, Leishmania infantum; details: Leishmania infantum
Experimental: After 24 h incubation, cells were washed five times with serum free RPMI and exposed to a serial dilution of test compounds, prepared using an acoustic dispenser (Echo 650, Labcyte), in RPMI (2% FCS). After two days, cells were washed thrice, and 20 μl of 0.05% SDS in RPMI was added upon removal of the supernatant. Upon incubation under orbital shaking for 30 seconds, cell lysis was stopped by addition of 180 μl M199 medium supplemented with 10% FCS. […] Then, fluorescence intensity of the samples was measured with a microplate reader (Synergy H1, BioTek) with λEx: 550 nm and λEm: 590 nm. Percent of viability was calculated according to cell only and media controls.
J774A.1 cells (J774) were infected with L. infantum metacyclic promastigotes. […] After controlled lysis of the infected macrophages, the released parasites were quantified using a resazurin based viability assay.

[6] = system: Murine macrophage cells (J774); assay: Cytotoxicity assay J774, resazurin reduction; format: cell-based
Experimental: as §3, §4

[7] = Trypanosoma brucei, read-out: EC50 T. brucei BSF, dose response, triplicate

`O=C(CCc1ccc(Br)cc1)NC(Cc1ccccc1)C(O)CN1CCN(Cc2ccccc2)CC1` (stereo not drawn) [LTC-10] showed a viability at 25 µM (L. major promastigotes; 72 h, read-out: viability, L.major promastigote (25 µM)) of 65.1 ± 3.01%, a viability at 25 µM (L. major promastigotes; 25 µM, read-out: viability, L.major promastigote (25 µM)) of 0.71 ± 1% and a viability at 2.5 µM ([1]; 2.5 µM, sheet LTC_compound_viability, value ± spread, read-out: viability, L. infantum promastigote (2.5 µM)) of 100.8 ± 0.96%. For the same molecule, the viability at 25 µM ([1]; 25 µM, sheet LTC_compound_viability, value ± spread, read-out: viability, L. infantum promastigote (25 µM)) was 0.85 ± 0.33%, the viability at 25 µM ([2]; Leishmania major, read-out: viability, L.major amastigote (25 µM)) was 74.2 ± 2.26% and the viability at 2.5 µM (T. brucei brucei BSF; Trypanosoma brucei, 2.5 µM, read-out: viability, T.brucei (2.5 µM)) was 99.8 ± 6.25%. It also gave a viability at 25 µM (T. brucei brucei BSF; Trypanosoma brucei, 25 µM, read-out: viability, T.brucei (25 µM)) of 2.86 ± 1.31%, an EC50 (T. brucei brucei BSF; [7]) of 6 ± 1.7 µM and a viability at 2.5 µM (T. cruzi trypomastigotes; 2.5 µM, read-out: viability, T.cruzi (2.5 µM)) of 61.1 ± 6.21%. For the same molecule, the viability at 25 µM (T. cruzi trypomastigotes; 25 µM, read-out: viability, T.cruzi (25 µM)) was 21.5 ± 1.69%, the EC50 (E. histolytica; Entamoeba histolytica, 48 h, 9 to 16-point dose response) was 6.5 ± 1.7 µM and the viability at 2.5 µM (E. histolytica; Entamoeba histolytica, read-out: viability, E.histolytica (2.5 µM)) was 73.2 ± 7%. The viability at 25 µM (E. histolytica; Entamoeba histolytica, read-out: viability, E.histolytica (25 µM)) was 4.28 ± 0.62%, the viability at 72 h, 2.5 µM ([3]; read-out: viability, J774 (2.5 µM)) was 99.9 ± 5.33% and the viability at 72 h, 25 µM ([3]; read-out: viability, J774 (25 µM)) was 2.99 ± 1.94%. The viability at 25 µM ([4]; J774, 25 µM, intracellular amastigote, read-out: viability, intracellular L. major amastigote (25 µM)) was 33.7 ± 12%.
`CC[C@@H](C)[C@H](c1nc2ccccc2n1Cc1cn(-c2c(F)c(F)c(F)c(F)c2F)nn1)N1C(=O)c2ccc(C)cc2C1=O` [PHT-80] gave a viability at 25 µM (L. major promastigotes; 25 µM, 72 h, vs non-treated cells, read-out: Residual viability, L.major promastigote (25 µM)) of 11.3 ± 1.4%, a viability at 2.5 µM ([1]; 2.5 µM, 72 h, vs non-treated cells, read-out: Residual viability, L. infantum promastigote (2.5 µM)) of 90.2 ± 3.63% and a viability at 25 µM ([1]; 25 µM, 72 h, vs non-treated cells, ± SD, triplicate, read-out: Residual viability, L. infantum promastigote (25 µM)) of 2.87 ± 0.48%. The viability at 2.5 µM ([2]; Leishmania major, 72 h, read-out: Residual viability, L.major amastigote (2.5 µM)) was 50.9 ± 3.89%, the viability at 25 µM ([2]; Leishmania major, 72 h, read-out: Residual viability, L.major amastigote (25 µM)) was 1.7% and the EC50 ([2]; Leishmania major, read-out: EC50 L. major axenic amastigote) was 2.5 ± 1.7 µM. For the same molecule, the EC50 ([5]; J774, read-out: EC50 L. infantum rescue assay, intramacrophage (J774), 18 concentrations) was > 10 µM, the viability at 25 µM ([5]; J774, rescue assay in J774, 25 µM, read-out: Residual viability, intracellular L. infantum amastigote (25 µM)) was 50.6 ± 13.8% and the “Residual viability, T.brucei (2.5 µM)” value (T. brucei brucei BSF; BSF, 2.5 µM, 72 h) was 3.41±0.28%. For the same molecule, the viability at 25 µM (T. brucei brucei BSF; Trypanosoma brucei, 72 h, BSF, 25 µM, 72 h, read-out: Residual viability, T.brucei (25 µM)) was -2.86 ± 1.75%, the viability at 2.5 µM (T. brucei brucei BSF; Trypanosoma brucei, 72 h, read-out: Residual viability, T.brucei (2.5 µM), BSF, 2.5 µM, 72 h) was 3.4% and the EC50 (T. brucei brucei BSF; [7]) was 0.4 µM. It also gave an EC50 (T. brucei brucei BSF; read-out: EC50 T. brucei BSF, dose response, triplicate) of 0.5 µM, an EC50 (T. brucei brucei BSF; read-out: EC50 T. brucei BSF, dose response, triplicate, listed as PH-80) of 0.45 µM and a viability at 2.5 µM (T. cruzi trypomastigotes; 72 h, 2.5 µM, 72 h, read-out: Residual viability, T.cruzi (2.5 µM)) of 72.4 ± 2.05%. The viability at 25 µM (T. cruzi trypomastigotes; 72 h, read-out: Residual viability, T.cruzi (25 µM), 25 µM, 72 h) was 25.7 ± 3.29%, the viability at 2.5 µM (E. histolytica; Entamoeba histolytica, 2.5 µM, 48 h, read-out: Residual viability, E.histolytica (2.5 µM)) was 61.8 ± 13.1% and the viability at 25 µM (E. histolytica; Entamoeba histolytica, 25 µM, 48 h, read-out: Residual viability, E.histolytica (25 µM)) was 45.2 ± 18.6%. The viability at 72 h, 2.5 µM ([3]; cytotoxicity, 72 h, read-out: Residual viability, J774 (2.5 µM)) was 124 ± 4.4%, the viability at 72 h, 25 µM ([3]; cytotoxicity, 72 h, read-out: Residual viability, J774 (25 µM)) was 78.1 ± 6.86% and the EC50 ([6]; Mus musculus, J774, 72 h, cytotoxicity, 72 h) was > 25 µM.
For LTC-4, the “viability, L.major promastigote (25 µM)” value (L. major promastigotes; 25 µM) was 1.56±2.86, the “viability, L.major promastigote (25 µM)” value (L. major promastigotes; head prints 25 µM, second of two columns with this head) was 60.14±7.43 and the “viability, L. infantum promastigote (2.5 µM)” value ([1]; 2.5 µM, sheet LTC_compound_viability, value ± spread) was 85.51±1.79. For the same molecule, the “viability, L. infantum promastigote (25 µM)” value ([1]; 25 µM, sheet LTC_compound_viability, value ± spread) was 24.04±0.45, the “viability, L.major amastigote (25 µM)” value ([2]; 25 µM) was 76.6±1.33 and the “viability, T.brucei (2.5 µM)” value (T. brucei brucei BSF; 2.5 µM) was 100.44±5.5. For the same molecule, the “viability, T.brucei (25 µM)” value (T. brucei brucei BSF; 25 µM) was 89.28±12.34, the “viability, T.cruzi (2.5 µM)” value (T. cruzi trypomastigotes; 2.5 µM) was 57.84±2.64 and the “viability, T.cruzi (25 µM)” value (T. cruzi trypomastigotes; 25 µM) was 58.59±2.21. For the same molecule, the “viability, E.histolytica (2.5 µM)” value (E. histolytica; 2.5 µM) was 68±7.58, the “viability, E.histolytica (25 µM)” value (E. histolytica; 25 µM) was 71.3±5.74 and the “viability, J774 (2.5 µM)” value ([6]; 2.5 µM) was 100.11±5.45. For the same molecule, the “viability, J774 (25 µM)” value ([6]; 25 µM) was 144.21±37.63 and the “viability, intracellular L. major amastigote (25 µM)” value ([4]; 25 µM) was 76.09±31.52.
